{"source": "patent US10370727B2", "about": "“Point mutations in TRK inhibitor-resistant cancer and methods relating to the same” (Loxo Oncology, Inc., priority 2015, dated 2019)", "assay_in_all_cases": "Trk enzyme assay ([33P] incorporation into poly-EAY)", "format_in_all_cases": "biochemical", "key": {"[1]": {"molecular_target": "TrkA F589L (Homo sapiens, UniProt P04629, F589L)", "sequence (P04629 33-796 F589L)": "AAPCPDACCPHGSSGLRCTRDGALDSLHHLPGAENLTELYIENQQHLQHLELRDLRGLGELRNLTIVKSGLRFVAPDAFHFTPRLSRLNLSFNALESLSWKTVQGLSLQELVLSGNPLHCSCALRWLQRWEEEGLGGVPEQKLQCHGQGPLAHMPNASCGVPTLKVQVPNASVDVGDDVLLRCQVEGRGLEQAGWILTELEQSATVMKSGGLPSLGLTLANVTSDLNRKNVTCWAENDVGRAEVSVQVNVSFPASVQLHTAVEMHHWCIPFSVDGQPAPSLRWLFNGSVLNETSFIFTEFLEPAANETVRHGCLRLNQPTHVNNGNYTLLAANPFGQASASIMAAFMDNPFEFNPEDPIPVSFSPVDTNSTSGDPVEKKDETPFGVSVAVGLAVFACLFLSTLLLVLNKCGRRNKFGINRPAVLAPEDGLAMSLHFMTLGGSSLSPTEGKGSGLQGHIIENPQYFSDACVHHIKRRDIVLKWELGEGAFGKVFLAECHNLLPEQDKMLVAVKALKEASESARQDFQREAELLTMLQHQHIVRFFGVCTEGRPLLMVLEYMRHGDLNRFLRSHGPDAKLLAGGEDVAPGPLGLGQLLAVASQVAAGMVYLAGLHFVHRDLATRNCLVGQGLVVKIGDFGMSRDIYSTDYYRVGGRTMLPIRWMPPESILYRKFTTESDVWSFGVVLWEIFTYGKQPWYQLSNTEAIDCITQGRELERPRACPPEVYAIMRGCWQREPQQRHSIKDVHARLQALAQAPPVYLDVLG", "details": "mutant TrkA F589L enzyme; 22° C., 60 minutes", "description": "(§1) The activity of the various Trk compounds exemplified in Table 6 was determined by monitoring the incorporation of [^33P]PO4 from [γ-^33P]ATP into poly-EAY (Sigma-Aldrich, P3899).\n(§2) The assays were conducted in 96-well polypropylene v-bottom microtitre plates (Corning, Costar® 3363) in a total volume of 50 μL. […] The radiolabeled product was then captured on glass fiber filter plates (PerkinElmer, Unifilter®-96, GF/B®) and washed with 5% phosphoric acid to remove unbound radiolabel using a Tomtec MACH III Harvester 96®. After adding 35 μL/well of Bio-Safe II™ liquid scintillation cocktail (Research Products International), the plates were counted in a TopCount NXT (PerkinElmer) using a counting time of 30 s/well. The activity at each concentration of compound was expressed as percent of control (POC) and plotted versus compound concentration."}, "[2]": {"molecular_target": "TrkC WT (Homo sapiens, UniProt Q16288, S70N)", "sequence (Q16288 32-839 S70N)": "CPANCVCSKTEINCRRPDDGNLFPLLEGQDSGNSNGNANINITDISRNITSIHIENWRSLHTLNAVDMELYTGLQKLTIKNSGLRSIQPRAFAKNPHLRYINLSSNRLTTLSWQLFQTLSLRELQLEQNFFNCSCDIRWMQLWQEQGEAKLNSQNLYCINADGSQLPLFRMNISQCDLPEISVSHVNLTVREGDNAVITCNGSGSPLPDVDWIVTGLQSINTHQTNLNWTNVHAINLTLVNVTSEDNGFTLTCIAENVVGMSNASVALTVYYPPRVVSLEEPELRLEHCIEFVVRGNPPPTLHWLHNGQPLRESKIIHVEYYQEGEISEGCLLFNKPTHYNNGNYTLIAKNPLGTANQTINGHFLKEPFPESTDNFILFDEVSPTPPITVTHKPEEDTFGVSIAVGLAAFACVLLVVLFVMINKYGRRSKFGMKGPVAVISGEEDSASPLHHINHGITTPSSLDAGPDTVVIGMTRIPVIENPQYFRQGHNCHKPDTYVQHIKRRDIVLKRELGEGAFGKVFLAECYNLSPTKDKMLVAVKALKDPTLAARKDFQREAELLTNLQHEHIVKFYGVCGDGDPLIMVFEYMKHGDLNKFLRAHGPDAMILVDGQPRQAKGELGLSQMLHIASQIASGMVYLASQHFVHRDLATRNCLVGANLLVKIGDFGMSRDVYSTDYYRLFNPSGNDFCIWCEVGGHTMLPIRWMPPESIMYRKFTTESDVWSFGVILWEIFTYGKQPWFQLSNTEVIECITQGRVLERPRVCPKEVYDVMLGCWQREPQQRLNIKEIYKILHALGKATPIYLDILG", "details": "wild-type TrkC enzyme; 22° C., 60 minutes", "description": "as §2"}, "[3]": {"molecular_target": "TrkC G623R (Homo sapiens, UniProt Q16288, G623R/S70N)", "sequence (Q16288 32-839 S70N/G623R)": "as the sequence (Q16288 32-839 S70N) above, with G592R counted along it", "details": "mutant TrkC G623R enzyme; 22° C., 60 minutes", "description": "The radiolabeled product was then captured on glass fiber filter plates (PerkinElmer, Unifilter®-96, GF/B®) and washed with 5% phosphoric acid to remove unbound radiolabel using a Tomtec MACH III Harvester 96®. After adding 35 μL/well of Bio-Safe II™ liquid scintillation cocktail (Research Products International), the plates were counted in a TopCount NXT (PerkinElmer) using a counting time of 30 s/well. The activity at each concentration of compound was expressed as percent of control (POC) and plotted versus compound concentration."}, "[4]": {"molecular_target": "TrkB WT (Homo sapiens, UniProt Q16620)", "sequence (Q16620 32-822)": "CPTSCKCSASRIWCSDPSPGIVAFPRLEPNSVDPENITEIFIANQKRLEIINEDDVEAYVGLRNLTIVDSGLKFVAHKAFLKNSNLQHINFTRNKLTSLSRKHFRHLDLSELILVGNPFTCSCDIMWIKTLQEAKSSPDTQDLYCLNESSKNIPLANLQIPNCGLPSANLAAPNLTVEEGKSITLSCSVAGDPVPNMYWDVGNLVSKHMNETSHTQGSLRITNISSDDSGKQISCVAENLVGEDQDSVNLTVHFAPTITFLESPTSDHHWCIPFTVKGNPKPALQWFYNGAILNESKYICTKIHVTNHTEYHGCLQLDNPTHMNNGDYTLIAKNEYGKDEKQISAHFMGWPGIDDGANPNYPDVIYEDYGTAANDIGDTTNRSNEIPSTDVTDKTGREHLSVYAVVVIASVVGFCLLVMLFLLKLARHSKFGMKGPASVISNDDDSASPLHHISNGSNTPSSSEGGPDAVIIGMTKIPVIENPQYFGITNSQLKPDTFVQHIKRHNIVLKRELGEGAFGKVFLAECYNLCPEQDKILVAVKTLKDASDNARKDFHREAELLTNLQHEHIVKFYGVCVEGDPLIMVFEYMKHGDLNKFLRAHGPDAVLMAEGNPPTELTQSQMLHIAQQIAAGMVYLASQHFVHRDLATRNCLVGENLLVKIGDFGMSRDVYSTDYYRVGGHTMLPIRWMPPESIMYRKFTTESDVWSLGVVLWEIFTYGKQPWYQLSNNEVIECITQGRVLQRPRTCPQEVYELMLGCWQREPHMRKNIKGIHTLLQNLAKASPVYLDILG", "details": "wild-type TrkB enzyme; 22° C., 60 minutes", "description": "as §2"}, "[5]": {"molecular_target": "TrkA G595R (Homo sapiens, UniProt P04629, G595R)", "sequence (P04629 33-796 G595R)": "as the sequence (P04629 33-796 F589L) above, with L557F, G563R counted along it", "details": "mutant TrkA G595R enzyme; 22° C., 60 minutes", "description": "as §1, §2"}, "[6]": {"molecular_target": "TrkA G667C (Homo sapiens, UniProt P04629, G667C)", "sequence (P04629 33-796 G667C)": "as the sequence (P04629 33-796 F589L) above, with L557F, G635C counted along it", "details": "mutant TrkA G667C enzyme; 22° C., 60 minutes", "description": "as §1, §2"}, "[7]": {"molecular_target": "TrkA V573M (Homo sapiens, UniProt P04629, V573M)", "sequence (P04629 33-796 V573M)": "as the sequence (P04629 33-796 F589L) above, with V541M, L557F counted along it", "details": "mutant TrkA V573M enzyme; 22° C., 60 minutes", "description": "as §1, §2"}, "[8]": {"molecular_target": "TrkC F617L (Homo sapiens, UniProt Q16288, F617L/S70N)", "sequence (Q16288 32-839 S70N/F617L)": "as the sequence (Q16288 32-839 S70N) above, with F586L counted along it", "details": "mutant TrkC F617L enzyme; 22° C., 60 minutes", "description": "as §2"}, "[9]": {"molecular_target": "TrkA G667S (Homo sapiens, UniProt P04629, G667S)", "sequence (P04629 33-796 G667S)": "as the sequence (P04629 33-796 F589L) above, with L557F, G635S counted along it", "details": "mutant TrkA G667S enzyme; 22° C., 60 minutes", "description": "as §1, §2"}, "[10]": {"molecular_target": "TrkA WT (Homo sapiens, UniProt P04629)", "sequence (P04629 33-796)": "as the sequence (P04629 33-796 F589L) above, with L557F counted along it", "details": "wild-type TrkA enzyme; 22° C., 60 minutes", "description": "as §2"}, "[11]": {"molecular_target": "TrkB G623R (Homo sapiens, UniProt Q16620, G623R)", "sequence (Q16620 32-822 G623R)": "as the sequence (Q16620 32-822) above, with G592R counted along it", "details": "mutant TrkB G623R enzyme; 22° C., 60 minutes", "description": "as §2"}}, "data": [{"smiles": "CN(C)C(=O)Nc1cnn2ccc(N3CCC[C@@H]3c3cc(F)ccc3F)nc12", "note": "[Compound 8, (R)-3-(5-(2-(2,5-difluorophenyl)pyrrolidin-1-yl)pyrazolo[1,5-a]pyrimidin-3-yl)-1,1-dimethylurea]", "values": [{"measurement": "IC50", "setting": "[1]", "result": 154, "unit": "nM"}, {"measurement": "IC50", "setting": "[2]", "result": "< 2.5", "unit": "nM"}, {"measurement": "IC50", "setting": "[3]", "result": 54.9, "unit": "nM"}, {"measurement": "IC50", "setting": "[4]", "result": 5, "unit": "nM"}, {"measurement": "IC50", "setting": "[5]", "result": 49.6, "unit": "nM"}, {"measurement": "IC50", "setting": "[6]", "result": 84.2, "unit": "nM"}, {"measurement": "IC50", "setting": "[7]", "result": 129, "unit": "nM"}, {"measurement": "IC50", "setting": "[8]", "result": 67.1, "unit": "nM"}, {"measurement": "IC50", "setting": "[9]", "result": 19.7, "unit": "nM"}, {"measurement": "IC50", "setting": "[10]", "result": 0.9, "unit": "nM"}, {"measurement": "IC50", "setting": "[11]", "result": 64.6, "unit": "nM"}]}, {"smiles": "CNC(=O)Nc1cnc2ccc(N3CCC[C@@H]3c3cc(F)ccc3F)nn12", "note": "[Compound 4, (R)-1-(6-(2-(2,5-difluorophenyl)pyrrolidin-1-yl)imidazo[1,2-b]pyridazin-3-yl)-3-methylurea]", "values": [{"measurement": "IC50", "setting": "[2]", "result": 3.1, "unit": "nM"}, {"measurement": "IC50", "setting": "[3]", "result": 70.8, "unit": "nM"}, {"measurement": "IC50", "setting": "[4]", "result": 10.6, "unit": "nM"}, {"measurement": "IC50", "setting": "[8]", "result": 177, "unit": "nM"}, {"measurement": "IC50", "setting": "[11]", "result": 132, "unit": "nM"}]}, {"smiles": "NC(=O)Nc1cnc2ccc(N3CCC[C@@H]3c3cc(F)ccc3F)nn12", "note": "[Compound 3, (R)-1-(6-(2-(2,5-difluorophenyl)pyrrolidin-1-yl)imidazo[1,2-b]pyridazin-3-yl)urea]", "values": [{"measurement": "IC50", "setting": "[2]", "result": 4.5, "unit": "nM"}, {"measurement": "IC50", "setting": "[3]", "result": 55.7, "unit": "nM"}, {"measurement": "IC50", "setting": "[4]", "result": 11.9, "unit": "nM"}, {"measurement": "IC50", "setting": "[8]", "result": 273, "unit": "nM"}, {"measurement": "IC50", "setting": "[11]", "result": 90, "unit": "nM"}]}, {"smiles": "O=C1NC[C@H](O)COc2ccc(F)cc2[C@H]2CC(F)(F)CN2c2ccn3ncc1c3n2", "note": "[Compound 26, (15S)-4,4,9-trifluoro-15-hydroxy-13-oxa-2,17,21,22.25-pentaazapentacyclo [17.5.2.0^2,6.0^7,12.0^22,26]hexacosa-1(25),7(12),8,10,19(26),20,23-heptaen-18-one]", "values": [{"measurement": "IC50", "setting": "[1]", "result": 3.9, "unit": "nM"}, {"measurement": "IC50", "setting": "[2]", "result": "< 2.5", "unit": "nM"}, {"measurement": "IC50", "setting": "[3]", "result": 2.6, "unit": "nM"}, {"measurement": "IC50", "setting": "[4]", "result": 3.3, "unit": "nM"}, {"measurement": "IC50", "setting": "[5]", "result": 2.1, "unit": "nM"}, {"measurement": "IC50", "setting": "[6]", "result": 1, "unit": "nM"}, {"measurement": "IC50", "setting": "[7]", "result": "< 5", "unit": "nM"}, {"measurement": "IC50", "setting": "[8]", "result": 9.6, "unit": "nM"}, {"measurement": "IC50", "setting": "[9]", "result": 0.5, "unit": "nM"}, {"measurement": "IC50", "setting": "[10]", "result": 0.6, "unit": "nM"}, {"measurement": "IC50", "setting": "[11]", "result": 1.8, "unit": "nM"}]}, {"smiles": "O=C(Nc1cnn2ccc(N3CCC[C@@H]3c3cc(F)ccc3F)nc12)N1CC(O)C1", "note": "[Compound 5, (R)-N-(5-(2-(2,5-difluorophenyl)pyrrolidin-1-yl)pyrazolo[1,5-a]pyrimidin-3-yl)-3-hydroxyazetidine-1-carboxamide]", "values": [{"measurement": "IC50", "setting": "[1]", "result": 232, "unit": "nM"}, {"measurement": "IC50", "setting": "[2]", "result": "< 2.5", "unit": "nM"}, {"measurement": "IC50", "setting": "[3]", "result": 95, "unit": "nM"}, {"measurement": "IC50", "setting": "[4]", "result": 5.9, "unit": "nM"}, {"measurement": "IC50", "setting": "[5]", "result": 84.6, "unit": "nM"}, {"measurement": "IC50", "setting": "[6]", "result": 141, "unit": "nM"}, {"measurement": "IC50", "setting": "[7]", "result": 152, "unit": "nM"}, {"measurement": "IC50", "setting": "[8]", "result": 154, "unit": "nM"}, {"measurement": "IC50", "setting": "[9]", "result": 38.5, "unit": "nM"}, {"measurement": "IC50", "setting": "[10]", "result": 1.1, "unit": "nM"}, {"measurement": "IC50", "setting": "[11]", "result": 132, "unit": "nM"}]}, {"smiles": "CC(=O)N1CCOc2ccc(F)cc2[C@H]2CCCN2c2ccn3ncc(c3n2)C1", "note": "[Compound 21, 1-[(6R)-9-fluoro-13-oxa-2,16,20,21,24-pentaazapentacyclo[16.5.2.0^2,6.0^7,12.0^21,25]pentacosa-1(24),7,9,11,18(25),19,22-heptaen-16-yl]ethan-1-one]", "values": [{"measurement": "IC50", "setting": "[1]", "result": 66.3, "unit": "nM"}, {"measurement": "IC50", "setting": "[2]", "result": "< 2.5", "unit": "nM"}, {"measurement": "IC50", "setting": "[3]", "result": 7.8, "unit": "nM"}, {"measurement": "IC50", "setting": "[4]", "result": 5.6, "unit": "nM"}, {"measurement": "IC50", "setting": "[5]", "result": 7.3, "unit": "nM"}, {"measurement": "IC50", "setting": "[6]", "result": 22.2, "unit": "nM"}, {"measurement": "IC50", "setting": "[7]", "result": 29.1, "unit": "nM"}, {"measurement": "IC50", "setting": "[8]", "result": 48.5, "unit": "nM"}, {"measurement": "IC50", "setting": "[9]", "result": 8.4, "unit": "nM"}, {"measurement": "IC50", "setting": "[10]", "result": 0.6, "unit": "nM"}, {"measurement": "IC50", "setting": "[11]", "result": 12.4, "unit": "nM"}]}, {"smiles": "CN(C)C(=O)Nc1cnc2ccc(N3CCC[C@@H]3c3cc(F)ccc3F)nn12", "note": "[Compound 2, (R)-3-(6-(2-(2,5-difluorophenyl)pyrrolidin-1-yl)imidazo[1,2-b]pyridazin-3-yl)-1,1-dimethylurea]", "values": [{"measurement": "IC50", "setting": "[2]", "result": "< 2.5", "unit": "nM"}, {"measurement": "IC50", "setting": "[3]", "result": 23.1, "unit": "nM"}, {"measurement": "IC50", "setting": "[4]", "result": 4.5, "unit": "nM"}, {"measurement": "IC50", "setting": "[8]", "result": 37.6, "unit": "nM"}, {"measurement": "IC50", "setting": "[11]", "result": 34.1, "unit": "nM"}]}, {"smiles": "CC1(O)CN(C(=O)Nc2cnc3ccc(N4CCC[C@@H]4c4cc(F)ccc4F)nn23)C1", "note": "[Compound 7, (R)-N-(6-(2-(2,5-difluorophenyl)pyrrolidin-1-yl)imidazo[1,2-b]pyridazin-3-yl)-3-hydroxy-3-methylazetidine-1-carboxamide]", "values": [{"measurement": "IC50", "setting": "[2]", "result": "< 2.5", "unit": "nM"}, {"measurement": "IC50", "setting": "[3]", "result": 22.7, "unit": "nM"}, {"measurement": "IC50", "setting": "[4]", "result": 7, "unit": "nM"}, {"measurement": "IC50", "setting": "[8]", "result": 42.5, "unit": "nM"}, {"measurement": "IC50", "setting": "[11]", "result": 47.9, "unit": "nM"}]}, {"smiles": "O=C(Nc1cnc2ccc(N3CCC[C@@H]3c3cc(F)ccc3F)nn12)N1CC(O)C1", "note": "[Compound 1, (R)-N-(6-(2-(2,5-difluorophenyl)pyrrolidin-1-yl)imidazo[1,2-b]pyridazin-3-yl)-3-hydroxyazetidine-1-carboxamide]", "values": [{"measurement": "IC50", "setting": "[2]", "result": "< 2.5", "unit": "nM"}, {"measurement": "IC50", "setting": "[3]", "result": 29.3, "unit": "nM"}, {"measurement": "IC50", "setting": "[4]", "result": 5.7, "unit": "nM"}, {"measurement": "IC50", "setting": "[8]", "result": 58, "unit": "nM"}, {"measurement": "IC50", "setting": "[11]", "result": 59.7, "unit": "nM"}]}]}
